From PubChem BioAssay AID248 (DTP/NCI, 2004)
Inconclusive results and toxic doses are left out. Rule as the data show it: active = T/C of 150% or more; inactive = T/C below 125%.

Test system: L1210 leukemia ip in BDF1 mice, survival T/C
Assay: NCI In Vivo Anticancer Drug Screen. Data for tumor model L1210 Leukemia (intraperitoneal) in B6D2F1 (BDF1) mice
Settings: endpoint: mean survival time, higher = longer survival
Procedure, shortened: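 Read-out is survival time, reported as the treated-group measurement over the vehicle-control measurement.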

[1] = dose: 6.25 mg/kg/injection, schedule: Q01DX009 (ip), vehicle: saline with Tween-80
[2] = dose: 12.5 mg/kg/injection, schedule: Q01DX009 (ip), vehicle: saline with Tween-80
[3] = dose: 100.0 mg/kg/injection, schedule: Q04DX002 (ip), vehicle: saline
[4] = dose: 200.0 mg/kg/injection, schedule: Q04DX002 (ip), vehicle: saline
[5] = dose: 100.0 mg/kg/injection, schedule: Q04DX003 (ip), vehicle: saline
[6] = dose: 200.0 mg/kg/injection, schedule: Q04DX003 (ip), vehicle: saline
[7] = dose: 50.0 mg/kg/injection, schedule: Q01DX009 (ip), vehicle: saline
[8] = dose: 100.0 mg/kg/injection, schedule: Q01DX009 (ip), vehicle: saline
[9] = dose: 100.0 mg/kg/injection, schedule: Q04DX003 (ip), vehicle: saline with Tween-80
[10] = dose: 200.0 mg/kg/injection, schedule: Q04DX003 (ip), vehicle: saline with Tween-80
[11] = dose: 400.0 mg/kg/injection, schedule: Q04DX003 (ip), vehicle: saline with Tween-80
[12] = dose: 100.0 mg/kg/injection, schedule: Q01DX009 (ip), vehicle: Klucel (hydroxypropylcellulose) (HPC)
[13] = dose: 100.0 mg/kg/injection, schedule: Q04DX003 (ip), vehicle: Klucel (hydroxypropylcellulose) (HPC)
[14] = dose: 200.0 mg/kg/injection, schedule: Q01DX009 (ip), vehicle: Klucel (hydroxypropylcellulose) (HPC)
[15] = dose: 200.0 mg/kg/injection, schedule: Q04DX003 (ip), vehicle: Klucel (hydroxypropylcellulose) (HPC)
[16] = dose: 400.0 mg/kg/injection, schedule: Q04DX003 (ip), vehicle: Klucel (hydroxypropylcellulose) (HPC)
[17] = dose: 100.0 mg/kg/injection, schedule: Q04DX002 (ip), vehicle: Klucel (hydroxypropylcellulose) (HPC)
[18] = dose: 200.0 mg/kg/injection, schedule: Q04DX002 (ip), vehicle: Klucel (hydroxypropylcellulose) (HPC)
[19] = dose: 400.0 mg/kg/injection, schedule: Q04DX002 (ip), vehicle: Klucel (hydroxypropylcellulose) (HPC)

Measured: T/C

CC(C)OC(=O)Nc1ccncc1
inactive: dose: 3.13 mg/kg/injection, schedule: Q01DX009 (ip), vehicle: saline with Tween-80 93 % of control | [1] 97 % of control | dose: 6.25 mg/kg/injection, schedule: Q04DX002 (ip), vehicle: saline with Tween-80 110 % of control | [2] 101 % of control | dose: 12.5 mg/kg/injection, schedule: Q04DX002 (ip), vehicle: saline with Tween-80 96 % of control

CC(C)COC(=O)C1(C)OC1c1ccccc1 (centres undefined)
inactive: [3] 115 % of control | [4] 104 % of control | dose: 400.0 mg/kg/injection, schedule: Q04DX002 (ip), vehicle: saline 97 % of control

O=S(=O)(O)C(I)(I)S(=O)(=O)O
inactive: [5] 99 % of control | [6] 100 % of control | dose: 400.0 mg/kg/injection, schedule: Q04DX003 (ip), vehicle: saline 95 % of control

O=C(O)c1ccc(C(=O)O)c(O)c1O
inactive: [7] 120 % of control | dose: 100.0 mg/kg/injection, schedule: Q01DX001 (ip), vehicle: saline 100 % of control | [8] 105 % of control | [5] 89 % of control | dose: 200.0 mg/kg/injection, schedule: Q01DX001 (ip), vehicle: saline 92 % of control | dose: 200.0 mg/kg/injection, schedule: Q01DX009 (ip), vehicle: saline 116 % of control | [6] 96 % of control | dose: 400.0 mg/kg/injection, schedule: Q01DX001 (ip), vehicle: saline 94 % of control

CCOC(=O)C1CCN(C(=O)c2ccccc2)c2scc(-c3ccccc3)c2C1=O (centres undefined)
inactive: dose: 50.0 mg/kg/injection, schedule: Q04DX003 (ip), vehicle: saline with Tween-80 94 % of control | [9] 100 % of control | [10] 92 % of control | [11] 97 % of control

O=c1[nH]cccc1[N+](=O)[O-]
inactive: dose: 100.0 mg/kg/injection, schedule: Q01DX009 (ip), vehicle: saline with Tween-80 95 % of control | dose: 200.0 mg/kg/injection, schedule: Q01DX009 (ip), vehicle: saline with Tween-80 90 % of control | dose: 400.0 mg/kg/injection, schedule: Q01DX009 (ip), vehicle: saline with Tween-80 95 % of control

ClC(CN1CCCCC1)C(Cl)c1ccccc1 (centres undefined)
inactive: [7] 90 % of control | dose: 50.0 mg/kg/injection, schedule: Q04DX003 (ip), vehicle: saline sonified 96 % of control | [8] 91 % of control | dose: 100.0 mg/kg/injection, schedule: Q04DX003 (ip), vehicle: saline sonified 91 % of control | dose: 200.0 mg/kg/injection, schedule: Q04DX003 (ip), vehicle: saline sonified 101 % of control

COC(=O)C1=CN=NC1=[N+]=[N-]
inactive: dose: 10.0 mg/kg/injection, schedule: Q01DX001 (ip), vehicle: saline 103 % of control | dose: 20.0 mg/kg/injection, schedule: Q01DX001 (ip), vehicle: saline 97 % of control

COc1ccc(-n2c(=O)c(N=Nc3ccc(Cl)cc3)c(O)n(-c3ccccc3C)c2=S)cc1
inactive: dose: 37.5 mg/kg/injection, schedule: Q01DX001 (ip), vehicle: Klucel (hydroxypropylcellulose) (HPC) 96 % of control | dose: 75.0 mg/kg/injection, schedule: Q01DX001 (ip), vehicle: Klucel (hydroxypropylcellulose) (HPC) 90 % of control | dose: 150.0 mg/kg/injection, schedule: Q01DX001 (ip), vehicle: Klucel (hydroxypropylcellulose) (HPC) 92 % of control

BrC1C2CC3C1C3C2c1ccccc1 (centres undefined)
inactive: [12] 117 % of control | [13] 103 % of control | [14] 109 % of control | [15] 107 % of control | dose: 400.0 mg/kg/injection, schedule: Q01DX009 (ip), vehicle: Klucel (hydroxypropylcellulose) (HPC) 107 % of control | [16] 103 % of control

CC(=O)c1c(O)c(Br)c(C)oc1=O (tested in a mixture with another compound)
inactive: [1] 89 % of control | [2] 100 % of control | dose: 25.0 mg/kg/injection, schedule: Q01DX009 (ip), vehicle: saline with Tween-80 93 % of control

CCOC(=O)CCc1cc2cc(C)nnc2[nH]1
inactive: [17] 95 % of control | [18] 91 % of control | [19] 106 % of control

Clc1ccc(Nc2ncnc3ncn(Cc4ccccc4)c23)cc1
inactive: dose: 100.0 mg/kg/injection, schedule: Q01DX001 (ip), vehicle: other 89 % of control | dose: 200.0 mg/kg/injection, schedule: Q01DX001 (ip), vehicle: other 93 % of control | dose: 400.0 mg/kg/injection, schedule: Q01DX001 (ip), vehicle: other 101 % of control

CC(C)(C)OC1C2C=CC1C1C2C(C)(C)C1(C)C (centres undefined)
inactive: dose: 100.0 mg/kg/injection, schedule: Q01DX001 (ip), vehicle: saline with Tween-80 90 % of control | dose: 200.0 mg/kg/injection, schedule: Q01DX001 (ip), vehicle: saline with Tween-80 90 % of control

CCN(CC)Cc1ccc([N+](=O)[O-])cc1
inactive: [3] 110 % of control | [4] 104 % of control

O=C(O)/C=C\C(=O)NCC1CCC(CNC(=O)/C=C\C(=O)O)CC1 (centres undefined)
inactive: [13] 98 % of control | [15] 100 % of control | [16] 102 % of control

O=C(O)c1ccccc1C(=O)NCc1ccc(Cl)cc1Cl
inactive: [17] 88 % of control | [18] 100 % of control | [19] 98 % of control

CCNC(=O)c1cc(NC(=O)Nc2ccc(C3=NCCN3)cc2)cc(NC(=O)Nc2ccc(C3=NCCN3)cc2)c1
inactive: dose: 62.0 mg/kg/injection, schedule: Q01DX Z (ip), vehicle: carboxymethylcellulose (CMC) 102 % of control | dose: 125.0 mg/kg/injection, schedule: Q01DX Z (ip), vehicle: carboxymethylcellulose (CMC) 103 % of control | dose: 250.0 mg/kg/injection, schedule: Q01DX Z (ip), vehicle: carboxymethylcellulose (CMC) 107 % of control | dose: 500.0 mg/kg/injection, schedule: Q01DX Z (ip), vehicle: carboxymethylcellulose (CMC) 102 % of control

COc1ccc(C=O)cc1OCCOc1cc(C=O)ccc1OC
inactive: dose: 50.0 mg/kg/injection, schedule: Q01DX009 (ip), vehicle: Klucel (hydroxypropylcellulose) (HPC) 91 % of control | [12] 108 % of control | [14] 94 % of control

O=[N+]([O-])C1CC=CCC1c1ccc(C2CC=CCC2[N+](=O)[O-])cc1 (centres undefined)
inactive: dose: 100.0 mg/kg/injection, schedule: Q01DX001 (ip), vehicle: carboxymethylcellulose (CMC) 96 % of control | dose: 200.0 mg/kg/injection, schedule: Q01DX001 (ip), vehicle: carboxymethylcellulose (CMC) 94 % of control | dose: 400.0 mg/kg/injection, schedule: Q01DX001 (ip), vehicle: carboxymethylcellulose (CMC) 92 % of control

NC(=O)NC(CC(=O)O)C(=O)O (centres undefined)
inactive: [9] 117 % of control | [10] 101 % of control | [11] 92 % of control
